# Measured values: publication PMC8222713, “Variation of Two S3b Residues in KV4.1–4.3 Channels Underlies Their Different Modulations by Spider Toxin κ-LhTx-1” (Frontiers in Pharmacology, 2021)
# Where a SMILES comes first, the peptide text is derived from it. Bridges are numbered along the chain shown (N, C = ends).
# Tests used:
# [1] = test system: KV4.1/282TD (P282T/K283D double mutant); assay: Whole-cell patch clamp, KV4.1/282TD in CHO-K1 cells; format: cell-based, mouse
# Description: (§1) The cDNA of hKV1.1, hKV1.3, rKV1.4, hKV1.5, rKV2.1, hKV3.1–3.4, mKV4.1, rKV4.2, and rKV4.3 were subcloned in the eukaryotic expression vector pCDNA3.1 or pCMV-blank. Channel mutants were made by a site-directed mutation method. Briefly, a pair of oppositely directed primers with 15 bp overlap at their 5′ ends and the designed mutation site were used to amplify the parental channel plasmid, then the PCR mix was treated with DpnI to remove the template. 10 μL digestion mix was directly used to transform 100 μL DH5α chemical competent cells. The correct mutation made by this procedure was finally confirmed by DNA sequencing. CHO-K1 cells (ATCC® CCL-61™) were grown in DMEM-F12 mixed medium (1:1) supplemented with 10% FBS and maintained in standard conditions (saturated humidity, 37°C, 5% CO2). Channel plasmid was co-transfected with pEGFP-N1 (encodes the green fluoresence protein) into CHO-K1 cells using lipofectamine 2000 following the manufacturer’s instructions. 4–6 h after transfection, cells were seeded onto poly-lysine (PLL) coated coverslips, and 24–36 h later, transfected cells were ready for patch-clamp analysis. It should be note that KV4.2 and its mutants were also co-expressed with hKChIP1 to promote their functional expressions.
# (§2) Whole-cell patch clamp recording was performed in an electrophysiology platform equipped with MultiClamp 700B amplifier and Axon Digidata 1550 AD/DA convertor (Axon Instruments, Irvine, CA, United States). Data were acquired using the pClamp software (Axon Instruments, Irvine, CA, United States). All experiments were performed at room temperature. The bath solution contains (in mM): 140 NaCl, 5 KCl, 1 MgCl2, 2 CaCl2, 10 glucose, and 10 HEPES (pH = 7.3). The pipette solution contains (in mM): 140 KCl, 2.5 MgCl2, 11 EGTA, and 10 HEPES (pH = 7.3). Series resistance was kept below 10 MΩ and compensated to 80%. The concentration–response curves were fitted by a Hill logistic equation to estimate the potency (IC50) of the toxin. The whole cell conductance (G) at each depolarizing voltage (V) was determined using the equation: G = I/(V−Vrev), where I and Vrev represents the current amplitude and the reversal potential, respectively. In the present study, Vrev for K^+ current is determined to be −85.61 mV using the Nernst equation. G-V curve was obtained by plotting the normalized G as a function of V and fitted by the Boltzmann equation: y = 1/{1 + exp [(Va−V)/K]}, in which Va, V, and K represents half-maximum activation voltage, test voltage and slope factor, respectively. The steady-state fast inactivation of KV4 channels was measured using a classical two-pulses protocol: cell was held at −120 mV, and a train of conditional voltages (−120–40 mV, in 10 mV increment, 1,000 ms) were applied to induce channel inactivation, followed by a +60 mV test pulse (300 ms) to assess the proportion of non-inactivated channels; the sweep interval was set to 10 s. Currents at the test pulse (I) were normalized to the maximum value (Imax) and plotted as a function of the conditional voltage (V), the curve was fitted by the Boltzmann equation: I/Imax = A + (1−A)/{1 + exp [(V−Vh)/K]}, where Vh is the half-maximum inactivation voltage, A represents the minimum channel availability, and K is the slope factor. Gating currents of KV4.1–4.3 channels were measured as previously reported ([Tilley et al., 2019]). Briefly, the ionic pore currents were abolished by replacing K^+ with NMDG^+ in the pipette solution, and 10 µM Cs^+ was present in the bath solution to occupy the selectivity filter of KV channels to prevent decay of the gating currents during recording.
# (§3) Data were presented as MEAN ± SEM, n represents the number of separate experimental cells. Data were analyzed using the software Clampfit 10.5 (Axon Instruments, Irvine, CA, United States), Graphpad Prism 5.01 (GraphPad Software, La Jolla, CA, United States) and Excel 2010 (Microsoft Corporation, Redmond, WA, United States). […]
# KV4.2/D281K mutant = assay: Whole-cell patch clamp, KV4.2/D281K (with hKChIP1) in CHO-K1 cells; format: cell-based, rat
# Description: as §1, §2, §3
# [2] = test system: KV4.3-TN/PK (KV4.3/277PK, T277P/N278K double mutant); assay: Whole-cell patch clamp, KV4.3-TN/PK (KV4.3/277PK) in CHO-K1 cells; format: cell-based, rat
# Description: as §1, §2, §3
# [3] = test system: KV4.3/275FVPK chimeric channel; assay: Whole-cell patch clamp, KV4.3/275FVPK chimera in CHO-K1 cells; format: cell-based, rat; details: mean ± SEM
# Description: as §1, §2, §3
# KV4.3/274LV/AA mutant = assay: Whole-cell patch clamp, KV4.3/274LV/AA in CHO-K1 cells; format: cell-based, rat; details: KV4.3/274LV/AA at Va depolarizing voltage, n = 5–7
# Description: (§4) The cDNA of hKV1.1, hKV1.3, rKV1.4, hKV1.5, rKV2.1, hKV3.1–3.4, mKV4.1, rKV4.2, and rKV4.3 were subcloned in the eukaryotic expression vector pCDNA3.1 or pCMV-blank. Channel mutants were made by a site-directed mutation method. Briefly, a pair of oppositely directed primers with 15 bp overlap at their 5′ ends and the designed mutation site were used to amplify the parental channel plasmid, then the PCR mix was treated with DpnI to remove the template. 10 μL digestion mix was directly used to transform 100 μL DH5α chemical competent cells. The correct mutation made by this procedure was finally confirmed by DNA sequencing. […] 4–6 h after transfection, cells were seeded onto poly-lysine (PLL) coated coverslips, and 24–36 h later, transfected cells were ready for patch-clamp analysis. […]
# (§5) Whole-cell patch clamp recording was performed in an electrophysiology platform equipped with MultiClamp 700B amplifier and Axon Digidata 1550 AD/DA convertor (Axon Instruments, Irvine, CA, United States). […] The whole cell conductance (G) at each depolarizing voltage (V) was determined using the equation: G = I/(V−Vrev), where I and Vrev represents the current amplitude and the reversal potential, respectively. In the present study, Vrev for K^+ current is determined to be −85.61 mV using the Nernst equation. […] Gating currents of KV4.1–4.3 channels were measured as previously reported ([Tilley et al., 2019]). […]
# KV1.1 channel (hKV1.1) = assay: Whole-cell patch clamp selectivity, KV1.1; format: cell-based, human; details: KV1.1, 10 µM, n = 5
# Description: as §4, §5
# KV1.3 channel (hKV1.3) = assay: Whole-cell patch clamp selectivity, KV1.3; format: cell-based, human; details: KV1.3, 10 µM, n = 5
# Description: as §4, §5
# KV1.4 channel (rKV1.4) = assay: Whole-cell patch clamp selectivity, KV1.4; format: cell-based, rat; details: KV1.4, 10 µM, n = 5
# Description: as §4, §5
# KV3.4 channel (hKV3.4) = assay: Whole-cell patch clamp selectivity, KV3.4; format: cell-based, human; details: KV3.4, 10 µM, n = 5
# Description: as §4, §5
# [4] = test system: KV4.1 channel gating currents; assay: Gating current recording, KV4.1; format: cell-based, mouse; details: KV4.1, n = 5–6
# Description: as §4, §5
# [5] = test system: KV4.2 channel gating currents; assay: Gating current recording, KV4.2; format: cell-based, rat
# Description: as §4, §5
# [6] = 10 μM κ-LhTx-1, G-V, mean ± SEM, n = 5
# [7] = 10 μM κ-LhTx-1, two-pulse protocol, mean ± SEM, n = 5
# [8] = Va shift by 10 μM κ-LhTx-1 vs control, mean ± SEM
# [9] = Vh shift by 10 μM κ-LhTx-1 vs control, mean ± SEM
# [10] = 10 μM κ-LhTx-1, G-V, mean ± SEM, n = 6
# [11] = 10 μM κ-LhTx-1, two-pulse protocol, mean ± SEM, n = 6
# [12] = 10 μM κ-LhTx-1, KV4.3-TN/PK, G-V, mean ± SEM, n = 5
# [13] = 10 μM κ-LhTx-1, KV4.3-TN/PK, two-pulse protocol, mean ± SEM, n = 5
# [14] = 10 μM κ-LhTx-1, two-pulse protocol, n = 5
compound,measurement,setting,value
"CC[C@H](C)[C@@H]1NC(=O)[C@H](CCC(N)=O)NC(=O)[C@@H]2CSSC[C@@H]3NC(=O)[C@H](CC(C)C)NC(=O)[C@H](CC(N)=O)NC(=O)[C@H](CCSC)NC(=O)[C@H](Cc4c[nH]c5ccccc45)NC(=O)[C@H](CO)NC(=O)[C@H](C)NC(=O)[C@@H](NC(=O)[C@H](CCC(=O)O)NC(=O)[C@H](CCC(N)=O)NC(=O)[C@H](C)NC(=O)[C@H](CC(=O)O)NC(=O)[C@@H](N)CCC(=O)O)CSSC[C@H](NC(=O)[C@H](CSSC[C@@H](C(=O)N[C@@H](CCCCN)C(=O)N[C@@H](Cc4ccc(O)cc4)C(=O)N[C@@H](CCCCN)C(=O)N[C@@H](CC(C)C)C(N)=O)NC(=O)[C@H](Cc4c[nH]c5ccccc45)NC1=O)NC(=O)[C@H](CCCCN)NC(=O)[C@H](CCCCN)NC(=O)[C@H](CCC(=O)O)NC(=O)CNC3=O)C(=O)N[C@@H](CCC(=O)O)C(=O)NCC(=O)N[C@@H](Cc1ccc(O)cc1)C(=O)N[C@@H](C(C)C)C(=O)N2 [κ-LhTx-1] (H-EDAQECASWMNLCGEKKCCEGYVCQIWCKYKL-NH2; disulfide 6-19, 13-24, 18-28 (inferred); N-terminus and C-terminus assumed)",Va (steady-state activation),[1]; [6],29.00 ± 0.52 mV
same,"k, slope factor (steady-state activation)",[1]; [6],25.50 ± 0.51 mV
same,Vh (steady-state inactivation),[1]; [7],-56.22 ± 2.80 mV
same,"k, slope factor (steady-state inactivation)",[1]; [7],5.95 ± 0.32 mV
same,inhi%(min),"[1]; 10 μM, +100 mV",approaching zero
same,∆Va (steady-state activation),[1]; [8],37.82 ± 2.83 mV
same,∆Vh (steady-state inactivation),[1]; [9],3.38 ± 3.15 mV
same,Va (steady-state activation),KV4.2/D281K mutant; [10],61.96 ± 1.96 mV
same,"k, slope factor (steady-state activation)",KV4.2/D281K mutant; [10],18.73 ± 0.70 mV
same,Vh (steady-state inactivation),KV4.2/D281K mutant; [11],-27.43 ± 2.53 mV
same,"k, slope factor (steady-state inactivation)",KV4.2/D281K mutant; [11],15.24 ± 1.42 mV
same,voltage-dependence of inhibition vs parental KV4.2,"KV4.2/D281K mutant; 10 μM, still greater than in KV4.1",much less voltage-dependence
same,∆Va (steady-state activation),KV4.2/D281K mutant; [8],68.10 ± 2.92 mV
same,∆Vh (steady-state inactivation),KV4.2/D281K mutant; [9],33.23 ± 2.95 mV
same,Va (steady-state activation),[2]; [12],81.96 ± 2.27 mV
same,"k, slope factor (steady-state activation)",[2]; [12],15.09 ± 1.14 mV
same,Vh (steady-state inactivation),[2]; [13],-25.43 ± 2.92 mV
same,"k, slope factor (steady-state inactivation)",[2]; [13],15.31 ± 2.02 mV
same,∆Va and inhi%(min) vs KV4.1,"[2]; KV4.3/277PK, 10 μM",not significantly different from those in KV4.1
same,∆Va (steady-state activation),"[2]; Va shift by 10 μM κ-LhTx-1 vs control, KV4.3-TN/PK, mean ± SEM",87.43 ± 2.99 mV
same,∆Vh (steady-state inactivation),"[2]; Vh shift by 10 μM κ-LhTx-1 vs control, KV4.3-TN/PK, mean ± SEM",26.29 ± 3.52 mV
same,Va (steady-state activation),"[3]; 10 μM κ-LhTx-1, G-V, n = 5",93.50 ± 2.00 mV
same,"k, slope factor (steady-state activation)","[3]; 10 μM κ-LhTx-1, G-V, n = 5",17.66 ± 1.15 mV
same,Vh (steady-state inactivation),[3]; [14],-9.28 ± 5.57 mV
same,"k, slope factor (steady-state inactivation)",[3]; [14],16.78 ± 3.11 mV
same,∆Va (steady-state activation),[3]; Va shift by 10 μM κ-LhTx-1 vs control,94.81 ± 2.45 mV
same,∆Vh (steady-state inactivation),[3]; Vh shift by 10 μM κ-LhTx-1 vs control,43.34 ± 5.46 mV
same,inhi%(min),"[3]; inhibition ratio at +100 mV, 10 μM",65.91 ± 3.36%
same,effect of mutation on toxin inhibition,KV4.3/274LV/AA mutant,profoundly weakened the effect
same,effect on currents,KV1.1 channel (hKV1.1),did not remarkably affect the currents
same,effect on currents,KV1.3 channel (hKV1.3),did not remarkably affect the currents
same,effect on currents,KV1.4 channel (rKV1.4),did not remarkably affect the currents
same,effect on currents,KV3.4 channel (hKV3.4),did not remarkably affect the currents
same,gating current inhibition,[4],inhibited the gating currents
same,"inhibition of gating charge (Q) movement, 500 nM vs 10 µM","[5]; KV4.2, holding −100 mV, 20 ms to +30 mV, n = 5–6",inhibited essentially the same proportion of gating charge movement
same,gating current inhibition,"[5]; KV4.2, n = 5–6",inhibited the gating currents
